# According to PubChem BioAssay (NCI):
#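 Growth conditions: 96-well plates. Treatment: test compound, 48 hours, 5 concentrations. Analysis: linear interpolation between bracketing concentrations; unreached endpoints set to highest concentration. GI50 marks 50% less growth. TGI is the concentration that stops growth completely.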
# Key:
# Assay in all cases: NCI anticancer screen, dose series, 48 h
# [1] = system: OVCAR-5 ovarian
# [2] = system: UACC-62 melanoma
# [3] = system: OVCAR-4 ovarian
# [4] = system: HL-60(TB) leukemia
# [5] = system: HCT-15 colon
# [6] = system: SF-268 CNS
# [7] = system: SK-OV-3 ovarian
# [8] = system: LOX IMVI melanoma
# [9] = system: M14 melanoma
# [10] = system: A549 NSCLC
# [11] = system: SF-295 CNS
# [12] = system: HOP-62 NSCLC
# [13] = system: ACHN renal
# [14] = system: OVCAR-8 ovarian
# [15] = system: HT29 colon
# [16] = system: PC-3 prostate
# [17] = system: BT-549 breast
# [18] = system: HOP-92 NSCLC
# [19] = system: DU-145 prostate
# [20] = system: NCI-H23 lung
# [21] = system: SN12C renal
# [22] = system: OVCAR-3 ovarian
# [23] = system: T-47D breast
# [24] = system: RXF 393 renal
# [25] = system: SNB-75 CNS
# [26] = system: HCC-2998 colon
# [27] = system: RPMI-8226 leukemia
# [28] = system: CAKI-1 renal
# [29] = system: EKVX NSCLC
# [30] = system: SNB-19 CNS
# [31] = system: SF-539 CNS
# [32] = system: HCT-116 colon
# [33] = system: 786-0 renal
# [34] = system: MOLT-4 leukemia
# [35] = system: K-562 leukemia
# [36] = system: MDA-MB-435
# [37] = system: CCRF-CEM leukemia
# [38] = system: SR leukemia
# [39] = system: KM12 colon
# [40] = system: NCI-H522 lung
# [41] = system: SK-MEL-2 melanoma
# [42] = system: MALME-3M melanoma
# [43] = system: SW-620 colon
# [44] = system: COLO 205 colon
# [45] = system: HS 578T breast
# [46] = system: MDA-MB-468 breast
structure (smiles),measurement,setting,value
CN1CCN(C(=O)Oc2cc3c(c4ccccc24)[C@H](CCl)CN3C(=O)c2cc3cc(OCCCN4CCC4)ccc3[nH]2)[C@@H]2CSSC[C@H]21,GI50,[1],6.88 nM
same,TGI,[1],40.8 nM
same,GI50,[2],2.2 nM
same,TGI,[2],10.5 nM
same,GI50,[3],27.5 nM
same,TGI,[3],93.4 nM
same,GI50,[4],9.94 nM
same,TGI,[4],321 nM
same,GI50,[5],3.82 nM
same,TGI,[5],24.2 nM
same,GI50,[6],8.99 nM
same,TGI,[6],293 nM
same,GI50,[7],15 nM
same,TGI,[7],> 10000 nM
same,GI50,[8],2.2 nM
same,TGI,[8],15.8 nM
same,GI50,[9],5.63 nM
same,TGI,[9],21.2 nM
same,GI50,[10],1.79 nM
same,TGI,[10],> 10000 nM
same,GI50,[11],2.25 nM
same,TGI,[11],6.82 nM
same,GI50,[12],5.17 nM
same,TGI,[12],60.1 nM
same,GI50,[13],2.37 nM
same,TGI,[13],7.23 nM
same,GI50,[14],3.29 nM
same,TGI,[14],129 nM
same,GI50,[15],8.29 nM
same,TGI,[15],> 10000 nM
same,GI50,[16],19.7 nM
same,TGI,[16],981 nM
same,GI50,[17],21.3 nM
same,TGI,[17],81.8 nM
same,GI50,[18],18.2 nM
same,TGI,[18],62.9 nM
same,GI50,[19],3.91 nM
same,TGI,[19],2440 nM
same,GI50,[20],1.74 nM
same,TGI,[20],5.41 nM
same,GI50,[21],10.5 nM
same,TGI,[21],98.6 nM
same,GI50,[22],27.4 nM
same,TGI,[22],> 10000 nM
same,GI50,[23],14.8 nM
same,TGI,[23],> 10000 nM
same,GI50,[24],5.66 nM
same,TGI,[24],19 nM
same,GI50,[25],19.7 nM
same,TGI,[25],75 nM
same,GI50,[26],3.47 nM
same,TGI,[26],15.2 nM
same,GI50,[27],23.2 nM
same,TGI,[27],1840 nM
same,GI50,[28],2.82 nM
same,TGI,[28],> 10000 nM
same,GI50,[29],12.2 nM
same,TGI,[29],40.6 nM
same,GI50,[30],5.79 nM
same,TGI,[30],76.2 nM
same,GI50,[31],5.25 nM
same,TGI,[31],21 nM
same,GI50,[32],6.75 nM
same,TGI,[32],> 10000 nM
same,GI50,[33],13.1 nM
same,TGI,[33],40 nM
same,GI50,[34],4.45 nM
same,TGI,[34],223 nM
same,GI50,[35],4.4 nM
same,TGI,[35],> 10000 nM
same,GI50,[36],12.7 nM
same,TGI,[36],38.1 nM
same,GI50,[37],7.41 nM
same,TGI,[37],3320 nM
same,GI50,[38],1.68 nM
same,TGI,[38],39.2 nM
same,GI50,[39],15.7 nM
same,TGI,[39],1520 nM
same,GI50,[40],10.9 nM
same,TGI,[40],35.4 nM
same,GI50,[41],18.7 nM
same,TGI,[41],35.2 nM
same,GI50,[42],6.37 nM
same,TGI,[42],20 nM
same,GI50,[43],2.28 nM
same,TGI,[43],1480 nM
same,GI50,[44],14.8 nM
same,TGI,[44],33.8 nM
same,GI50,[45],27.9 nM
same,TGI,[45],124 nM
same,GI50,[46],2.55 nM
same,TGI,[46],7.92 nM
